Results: ChEMBL document CHEMBL3885861, “Open TG-GATES”

Organism: Rattus norvegicus
Experiment: Open TG-GATES - Regimen: Daily Repeat
Type: toxicity, organism-based, Sprague-Dawley
Parameters: regimen Daily Repeat, gender Male, age 6 weeks
Settings: in vivo, po, route gavage; for APTT / Bas / Eos / Fbg / Ht / Lym / MCHC / MCV / Mono / PT / Plat / RBC / Ret / WBC: tissue Blood; for KIDNEY_L / KIDNEY_R / KIDNEY_TOTAL: tissue Kidney; for LIVER: tissue Liver; for ALP / ALT / AST / BUN / CRE / Ca / Cl / DBIL / IP / LDH / Na / PL / RALB / TBIL / TC / TG / TP / gamma-GTP: tissue Plasma
[1] = 0 mg/kg, 72 h, dose level Control, time 3 day
[2] = 0 mg/kg, […], dose level Control, time 7 day
[3] = 0 mg/kg, […], dose level Control, time 14 day
[4] = 0 mg/kg, […], dose level Control, time 28 day
[5] = 40 mg/kg, 72 h, dose level Low, time 3 day
[6] = 40 mg/kg, […], dose level Low, time 7 day
[7] = 40 mg/kg, […], dose level Low, time 14 day
[8] = 40 mg/kg, […], dose level Low, time 28 day

CC(C)N(CCC(C(N)=O)(c1ccccc1)c1ccccn1)C(C)C (stereo not given) [DISOPYRAMIDE]
TERMINAL_BW [1]: 230.2 g
APTT [1]: 22 s
Bas [1]: 0%
Eos [1]: 1.2%
Fbg [1]: 325.2 mg/dL
Ht [1]: 39.9%
Lym [1]: 76.8%
MCHC [1]: 32%
MCV [1]: 64.5 fL
Mono [1]: 2.8%
PT [1]: 15.8 s
Plat [1]: 130.4 x10_4/uL
RBC [1]: 617.8 x10_4/ul
Ret [1]: 7.1%
WBC [1]: 99.7 x10_2/uL
KIDNEY_L [1]: 1 g
KIDNEY_R [1]: 1 g
KIDNEY_TOTAL [1]: 2 g
LIVER [1]: 11 g
ALP [1]: 1742 IU/L
ALT [1]: 49.6 IU/L
AST [1]: 80.8 IU/L
BUN [1]: 17.6 mg/dL
CRE [1]: 0.2 mg/dL
Ca [1]: 10.6 mg/dL
Cl [1]: 107.2 meq/L
DBIL [1]: 0 mg/dL
IP [1]: 7.5 mg/dL
LDH [1]: 201.8 IU/L
Na [1]: 143 meq/L
PL [1]: 140.4 mg/dL
RALB [1]: 2.9 g/dL
TBIL [1]: 0 mg/dL
TC [1]: 71.6 mg/dL
TG [1]: 88 mg/dL
TP [1]: 5.5 g/dL
gamma-GTP [1]: 2 IU/L
TERMINAL_BW [2]: 265.2 g
TERMINAL_BW [3]: 303.7 g
TERMINAL_BW [4]: 406.5 g
APTT [2]: 21.6 s
Bas [2]: 0%
Eos [2]: 0.8%
Fbg [2]: 324 mg/dL
Ht [2]: 39.9%
Lym [2]: 78%
MCHC [2]: 32.1%
MCV [2]: 62.4 fL
Mono [2]: 2%
PT [2]: 16.2 s
Plat [2]: 116.2 x10_4/uL
RBC [2]: 639.4 x10_4/ul
Ret [2]: 6.7%
WBC [2]: 90.3 x10_2/uL
APTT [3]: 25.1 s
Bas [3]: 0%
Eos [3]: 1%
Fbg [3]: 319.4 mg/dL
Ht [3]: 41.9%
Lym [3]: 80.8%
MCHC [3]: 33%
MCV [3]: 58.7 fL
Mono [3]: 2%
PT [3]: 15.7 s
Plat [3]: 113.2 x10_4/uL
RBC [3]: 715 x10_4/ul
Ret [3]: 4.4%
WBC [3]: 124.4 x10_2/uL
APTT [4]: 24.9 s
Bas [4]: 0%
Eos [4]: 1%
Fbg [4]: 317 mg/dL
Ht [4]: 42.9%
Lym [4]: 80%
MCHC [4]: 33.5%
MCV [4]: 56.9 fL
Mono [4]: 2.2%
PT [4]: 15.7 s
Plat [4]: 100.4 x10_4/uL
RBC [4]: 755.2 x10_4/ul
Ret [4]: 3.4%
WBC [4]: 136.1 x10_2/uL
KIDNEY_L [2]: 1.1 g
KIDNEY_R [2]: 1.1 g
KIDNEY_TOTAL [2]: 2.3 g
KIDNEY_L [3]: 1.2 g
KIDNEY_R [3]: 1.3 g
KIDNEY_TOTAL [3]: 2.5 g
KIDNEY_L [4]: 1.6 g
KIDNEY_R [4]: 1.6 g
KIDNEY_TOTAL [4]: 3.1 g
LIVER [2]: 13.2 g
LIVER [3]: 13.6 g
LIVER [4]: 17.8 g
ALP [2]: 1665 IU/L
ALT [2]: 44 IU/L
AST [2]: 70.8 IU/L
BUN [2]: 19 mg/dL
CRE [2]: 0.2 mg/dL
Ca [2]: 10.6 mg/dL
Cl [2]: 106.6 meq/L
DBIL [2]: 0 mg/dL
IP [2]: 7.8 mg/dL
LDH [2]: 199.2 IU/L
Na [2]: 143.2 meq/L
PL [2]: 158.6 mg/dL
RALB [2]: 3 g/dL
TBIL [2]: 0 mg/dL
TC [2]: 81.4 mg/dL
TG [2]: 133.6 mg/dL
TP [2]: 5.6 g/dL
gamma-GTP [2]: 2 IU/L
ALT [3]: 41.8 IU/L
AST [3]: 68 IU/L
BUN [3]: 18.6 mg/dL
CRE [3]: 0.1 mg/dL
Ca [3]: 10.3 mg/dL
Cl [3]: 104.8 meq/L
DBIL [3]: 0 mg/dL
IP [3]: 7 mg/dL
LDH [3]: 142.2 IU/L
Na [3]: 142.2 meq/L
PL [3]: 146.4 mg/dL
RALB [3]: 3 g/dL
TBIL [3]: 0.004 mg/dL
TC [3]: 71.2 mg/dL
TG [3]: 138.2 mg/dL
TP [3]: 5.7 g/dL
gamma-GTP [3]: 2.2 IU/L
ALP [4]: 1292.8 IU/L
ALT [4]: 36.8 IU/L
AST [4]: 62.8 IU/L
BUN [4]: 17.4 mg/dL
CRE [4]: 0.2 mg/dL
Ca [4]: 10.4 mg/dL
Cl [4]: 105 meq/L
DBIL [4]: 0 mg/dL
IP [4]: 6.8 mg/dL
LDH [4]: 199.4 IU/L
Na [4]: 140.6 meq/L
PL [4]: 145.4 mg/dL
RALB [4]: 3.1 g/dL
TBIL [4]: 0.006 mg/dL
TC [4]: 70.6 mg/dL
TG [4]: 181.6 mg/dL
TP [4]: 6.1 g/dL
gamma-GTP [4]: 2.2 IU/L
TERMINAL_BW [5]: 231.5 g
APTT [5]: 20.9 s
Bas [5]: 0%
Eos [5]: 1.2%
Fbg [5]: 313.2 mg/dL
Ht [5]: 39.2%
Lym [5]: 81.8%
MCHC [5]: 32.1%
MCV [5]: 63.9 fL
Mono [5]: 2.2%
PT [5]: 16 s
Plat [5]: 113.5 x10_4/uL
RBC [5]: 614.4 x10_4/ul
Ret [5]: 6.2%
WBC [5]: 87.7 x10_2/uL
KIDNEY_L [5]: 1.1 g
KIDNEY_R [5]: 1.1 g
KIDNEY_TOTAL [5]: 2.1 g
LIVER [5]: 10.8 g
ALP [5]: 1494 IU/L
ALT [5]: 45.4 IU/L
AST [5]: 75.4 IU/L
BUN [5]: 15.4 mg/dL
CRE [5]: 0.2 mg/dL
Ca [5]: 10.8 mg/dL
Cl [5]: 107.8 meq/L
DBIL [5]: 0 mg/dL
IP [5]: 7.6 mg/dL
LDH [5]: 188.2 IU/L
PL [5]: 146.8 mg/dL
RALB [5]: 3 g/dL
TBIL [5]: 0 mg/dL
TC [5]: 73.4 mg/dL
TG [5]: 122.4 mg/dL
TP [5]: 5.4 g/dL
gamma-GTP [5]: 1.8 IU/L
TERMINAL_BW [6]: 254.3 g
TERMINAL_BW [7]: 308.2 g
TERMINAL_BW [8]: 375 g
APTT [6]: 20.5 s
Bas [6]: 0%
Eos [6]: 0.8%
Fbg [6]: 323.8 mg/dL
Ht [6]: 40%
Lym [6]: 83%
MCHC [6]: 32.7%
MCV [6]: 61.2 fL
Mono [6]: 1.8%
PT [6]: 15.9 s
Plat [6]: 122.2 x10_4/uL
RBC [6]: 654 x10_4/ul
Ret [6]: 6.2%
WBC [6]: 120.7 x10_2/uL
APTT [7]: 23.9 s
Bas [7]: 0%
Eos [7]: 1%
Fbg [7]: 310.6 mg/dL
Ht [7]: 41.1%
Lym [7]: 80.6%
MCHC [7]: 32.8%
MCV [7]: 59.7 fL
Mono [7]: 2.2%
PT [7]: 15.3 s
Plat [7]: 109 x10_4/uL
RBC [7]: 688.2 x10_4/ul
Ret [7]: 4.9%
WBC [7]: 113.4 x10_2/uL
APTT [8]: 25.5 s
Bas [8]: 0%
Eos [8]: 1.2%
Fbg [8]: 320.2 mg/dL
Ht [8]: 43.3%
Lym [8]: 81%
MCHC [8]: 33.8%
MCV [8]: 55.7 fL
Mono [8]: 2.2%
PT [8]: 15.4 s
Plat [8]: 110.5 x10_4/uL
RBC [8]: 776.4 x10_4/ul
Ret [8]: 2.6%
WBC [8]: 121.1 x10_2/uL
KIDNEY_L [6]: 1 g
KIDNEY_R [6]: 1.1 g
KIDNEY_TOTAL [6]: 2.1 g
KIDNEY_L [7]: 1.3 g
KIDNEY_R [7]: 1.3 g
KIDNEY_TOTAL [7]: 2.6 g
KIDNEY_L [8]: 1.4 g
KIDNEY_R [8]: 1.4 g
KIDNEY_TOTAL [8]: 2.7 g
LIVER [6]: 11.6 g
LIVER [7]: 14.7 g
LIVER [8]: 16 g
ALP [6]: 1528.8 IU/L
ALT [6]: 48.2 IU/L
AST [6]: 72.2 IU/L
BUN [6]: 16.4 mg/dL
CRE [6]: 0.1 mg/dL
Ca [6]: 10.4 mg/dL
Cl [6]: 106.8 meq/L
DBIL [6]: 0.002 mg/dL
IP [6]: 7.7 mg/dL
LDH [6]: 149.8 IU/L
Na [6]: 143.2 meq/L
PL [6]: 141.6 mg/dL
RALB [6]: 2.9 g/dL
TBIL [6]: 0 mg/dL
TC [6]: 73.4 mg/dL
TG [6]: 115.6 mg/dL
TP [6]: 5.4 g/dL
gamma-GTP [6]: 1.8 IU/L
ALP [7]: 1255.8 IU/L
ALT [7]: 47.8 IU/L
AST [7]: 75 IU/L
BUN [7]: 16.8 mg/dL
CRE [7]: 0.2 mg/dL
Ca [7]: 10.4 mg/dL
Cl [7]: 104.8 meq/L
DBIL [7]: 0 mg/dL
IP [7]: 7.6 mg/dL
LDH [7]: 225 IU/L
Na [7]: 141.6 meq/L
PL [7]: 147 mg/dL
RALB [7]: 3.1 g/dL
TBIL [7]: 0.01 mg/dL
TC [7]: 73.6 mg/dL
TG [7]: 131 mg/dL
TP [7]: 5.7 g/dL
gamma-GTP [7]: 2.2 IU/L
ALP [8]: 1094 IU/L
ALT [8]: 40 IU/L
AST [8]: 64.6 IU/L
BUN [8]: 17.4 mg/dL
CRE [8]: 0.2 mg/dL
Ca [8]: 10.5 mg/dL
Cl [8]: 106.4 meq/L
DBIL [8]: 0 mg/dL
IP [8]: 6.3 mg/dL
LDH [8]: 158.6 IU/L
Na [8]: 140.6 meq/L
PL [8]: 158 mg/dL
RALB [8]: 3.1 g/dL
TBIL [8]: 0.004 mg/dL
TC [8]: 70 mg/dL
TG [8]: 205 mg/dL
TP [8]: 6.1 g/dL
gamma-GTP [8]: 2.2 IU/L
TERMINAL_BW (120 mg/kg, 72 h, dose level Middle, time 3 day): 227.1 g
